Test results from paper PMC5292209 (Biochemistry, 2016).

Molecular target: T1, Protein tyrosine phosphatase 1B (PTP1B) (Homo sapiens, UniProt P18031)
T1 sequence (P18031 1-301): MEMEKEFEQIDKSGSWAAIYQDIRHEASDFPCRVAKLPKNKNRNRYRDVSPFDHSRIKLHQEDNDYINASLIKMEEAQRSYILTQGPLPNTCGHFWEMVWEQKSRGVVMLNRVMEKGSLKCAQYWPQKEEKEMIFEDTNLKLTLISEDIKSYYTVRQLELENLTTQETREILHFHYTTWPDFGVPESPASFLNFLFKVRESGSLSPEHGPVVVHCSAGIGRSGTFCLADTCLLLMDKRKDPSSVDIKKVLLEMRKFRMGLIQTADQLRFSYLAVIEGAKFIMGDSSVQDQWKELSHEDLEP

Compound `O=[N+]([O-])c1ccc(OP(=O)(O)O)cc1` [pNPP, p-nitrophenyl phosphate] has a Km of 2800 ± 100 µM.
